The values below are quoted from earlier work in PMC4512625, “Critical role of the SPAK protein kinase CCT domain in controlling blood pressure” (Human Molecular Genetics, 2015).

In data set [1] the test system is human OSR1 CCT domain, Leu473 to Ala. The note with it: mutant versus wild type. The text has this:
Consistent with this, mutation of Leu473 to Ala reduced binding of OSR1 to RFXI WNK4 peptide over 100-fold ([40]).

In data set [2] the test system is NKCC1 in the hypothalamic paraventricular nucleus. Conditions: intracranial administration, spontaneously hypertensive rats. The text has this:
The altered shape of the arterial pressure waveform in our […] mice (Fig. 5B) is consistent with increased vascular compliance and reduced wave reflection in the periphery as compared with the wild-type animals. This may be explained in part by a diminished cardiac output arising from possible reductions in cardiac contractility owing to loss of NKCC1 activity in the heart ([49]) (Fig. 2B) and the lower heart rates of the […] mice (Fig. 5A), because augmentation is negatively correlated with heart rate in humans ([50]). It has also been previously shown that […] ...

In the case of “GRFQVT [RFXI WNK4 peptide, RFXI motif-containing peptide derived from WNK4, complexed to the human OSR1 CCT domain]”, the “reduction of binding of OSR1 to RFXI WNK4 peptide by mutation of Leu473 to Ala” value in data set [1] is “over 100 fold”.
As to `CCCCNc1cc(C(=O)O)cc(S(N)(=O)=O)c1Oc1ccccc1` [bumetanide], in data set [2], the heart rate result is given as “lower their heart rates” and the sympathetic vasomotor tone result was “reduce sympathetic vasomotor tone”.
